From US20220333153A1, “ULTRASENSITIVE ELECTROCHEMICAL BIOSENSORS” (MOLECULAR WAREHOUSE, LTD., priority 2016, published 2022)

What was measured:
[1] = GDH enzymatic activity of the chimeric proteins themselves; type: biochemical
Description: (§1) The GDH enzyme assay was performed as described by Yu et al.^20 Briefly, the 1.5-mL assay system consisted of 20 mM glucose, 0.6 mM phenazine methosulfate, 0.06 mM […], 10 mM MOPS (pH 7.0), and corresponding concentration of CaCl2 and enzyme. The enzymatic assay was performed at 25° C. by monitoring the reduction in the absorbance of […] at 600 nm.
We conjectured that dislocation of either of these residues will impact the catalysis and if carried out in a reversible fashion could utilized for controlling enzymes activity. To test this idea we inserted calmodulin (CaM) domain into GDH at the position 330 and produced the resulting CaM-GDH chimeric protein (SEQ ID NO: 10) in recombinant form. […] The activity of fully activated fusion represented 50% of activity of the wild-type protein. […] We therefore concluded that we successfully constructed a peptide regulated GDH biosensor module.
We next decided to test if the developed allosteric module can be used to construct a generic biosensor architecture. To this end we fused the developed CaM-GDH chimera C-terminally with rapamycin-binding FKBP domain (SEQ ID NO: 11) and produced the protein in recombinant form. […] We then constructed a fusion between FKBP binding partner FRB and CaM-BP that would associate with the former reporter molecule in the rapamycin dependent fashion. […]

[2] = tested on: affinity clamp-GDH chimera (SEQ ID NO: 25); test: OFF switch: inhibition of GDH activity of affinity clamp-GDH chimera by PDZ peptides; type: biochemical; conditions: 10 nM chimera; 1 μM strong or 2 μM weak peptide ligand
From the text: (§2) FIG. 5. Development and applications of an OFF switch biosensor based on GDH. […] (C) as in B but using the biosensor with the optimized linkers between the affinity clamp and the GDH, titrated with the increasing concentrations of the strong ligand peptide. (D) A dissociative biosensor architecture based on the developed affinity clamp-GDH biosensor. The star denotes the ligand either genetically fused or conjugated to the regulatory domain. (E) Exemplification of the design shown in D with a biosensor for IL18: the ligand is IL18 and the binder is IL18 binding protein. […] (G) As in D but using a binder that competitively associates with the receptor domain and is dislodged by the binding of the ligand.
as §1
So far all presented biosensor architectures were designed to increase the GDH activity upon association with the analyte. While this is a common strategy it creates potential problems when binding of two protein modules to a single small molecule is required. […]

[3] = target: PDZ domain binding peptide; conditions: read-out: affinity for PDZ domain binding peptide; cited from earlier work
[4] = tested on: affinity clamp-GDH IL18 binding protein chimera (SEQ ID NO: 37) with IL18-affinity-clamp ligand fusion (SEQ ID NO: 38); test: IL18 dissociative biosensor, GDH activity; type: biochemical; conditions: 10 nM SEQ ID NO: 37, 50 nM SEQ ID NO: 38; 0 to 2.5 μM IL18
From the text: as §2
The developed GDH —based OFF switch can be converted into biosensors of small molecules and biological polymers such as proteins and nucleic acids by fusing it to the appropriate binding domains (FIG. 5D) FIG. 5E depicts an IL18 biosensor that was generated incorporating a GDH-based OFF switch based on a fusion with IL18 binding protein, where the ligand is IL18 and the binder IL18 binding protein.

## CaM-GDH chimeric protein: PQQ-GDH with calmodulin domain inserted at position 330, recombinant
[1]; absence of CaM-BP / activating ligand
  GDH activity of the protein without activating ligand: some GDH activity
[1]; fully activated by CaM-BP
  activity of fully activated fusion as share of activity of the wild-type protein: 50%

## RGSIDTWV (PDZ peptide (ePDZ ligand, high affinity)) [SEQ ID NO: 27]
[2]
  inhibition of GDH activity of affinity clamp-GDH chimera: stronger inhibition of GDH activity than the weaker ligand

B1: affinity clamp: circularly permutated Erbin PDZ domain linked to engineered fibronectin type III (FN3) (protein)
chain: EDAPESPELGFSISGGVGGRGNPFRPDDDGIFVTRVQPEGPASKLLQPGDKIIQANGYSFINIEHGQAVSLLKTFQNTVELIIVREVGNGAKQEIRVRVEKDGGSGGVSSVPTNLEVVAATPTSLLISWDAYRELPVSYYRITYGETGGNSPVQEFTVPGSKSTATISGLKPGVDYTITVYAHYNYHYYSSPISINYRGPG
modifications: ePDZ domain
[3]
  Kd: < 1 nM

B2: IL18: cytokine analyte of the dissociative biosensor (protein)
chain: GYFGKLESKLSVIRNLNDQVLFIDQGNRPLFEDMTDSDSRDNAPRTIFIISMYKDSQPRGMAVTISVKSEKISTLSSENKIISFKEMNPPDNIKDTKSDIIFFQRSVPGHDNKMQFESSSYEGYFLASEKERDLFKLILKKEDELGDRSIMFTVQNEDG
modifications: Interleukin-18
notes: cytokine analyte of the dissociative biosensor
[4]
  detection by IL18 biosensor (GDH activity): dose-dependent detection
